{"source": "patent US12325744B2", "about": "“Methods for reducing post-operative cognitive dysfunction (POCD)” (The Kennedy Trust for Rheumatology Research, priority 2010, dated 2025)", "key": {"microglia [1]": {"test_system": "microglia", "assay": "Hippocampal microglia anti-CD11b immunohistochemistry grading (0-3) after tibial surgery", "format": "in vivo", "settings": "wild type mice, 1 day after surgery", "text": "Immunohistochemistry. Fixed brains were collected for immunohistochemical DAB staining for CD11 b and scored as previously described^21. (For further details please refer to supplemental methods).\nUnder terminal anesthesia with pentobarbital, mice were euthanized and perfused transcardially with ice-cold heparinized 0.1M phosphate buffer solution (PBS) followed by 4% paraformaldehyde in 0.1M PBS at pH 7.4 (VWR International, Lutterworth, Leicester, UK). The brains were harvested and post-fixed in 4% paraformaldehyde in 0.1M PBS at 4° C. and cryoprotected in 0.1M PBS solutions containing 15% sucrose for 24 hours (VWR International, Lutterworth, Leicester, UK) and then 30% sucrose for a further 48 hours. […]\nImmunohistochemistry: Fixed brains were collected for immunohistochemical DAB staining for microglia activation using CD11 b and scored as previously described (13).\nMethods: Adult C56BL/6J male mice were randomly assigned into groups that were: 1) untreated (naïve) animals; 2) tibial fracture under GA and analgesia; 3) 24 h following tibial surgery, i.p. injection of LPS (1 mg/kg) 4) LPS injection only. Separate cohorts of mice per group were assessed for inflammatory markers (plasma cytokines and microglial activation), or hippocampal-dependent memory using trace fear conditioning (TFC)."}, "IL-6": {"test_system": "IL-6", "assay": "Plasma IL-6 by ELISA after LPS injection", "format": "in vivo, mice", "settings": "LPS 1 mg/kg i.p., IL-1Ra 100 mg/kg s.c. immediately before LPS", "experimental": "(§1) Treatment. LPS derived from Escherichia Coli endotoxin ([…], InvivoGen, USA, 1 mg/kg) was dissolved in normal saline and injected intraperitoneally. IL-1Ra (Amgen, Anakinra 100 mg/kg, Nederlands) was given subcutaneously immediately before LPS administration. Dose response curve from LPS or IL-1Ra was obtained from our pilot studies to provoke or to suppress moderate degree of microglia activation respectively. Control animals were injected with equivalent volumes (0.1 ml) of saline. Mice from each treatment group were randomly assigned for assessment of either cytokine response or cognitive behavior, in order to obviate possible confounding effects of behavioral testing on inflammatory markers.\n(§2) Plasma cytokine measurement. Blood was sampled transcardially after thoracotomy under terminal anesthesia 30 minutes, 2, 6, 12 hours and 1, 3, 7 days after experiments in the different cohorts and centrifuged at 3,600 rpm for 7 minutes at 4° C. Blood samples taken from animals without any interventions severed as controls. Plasma samples were stored at −20° C. for further analysis. Plasma cytokine and HMGB-1 were measured using commercially available ELISA kits from Biosource, CA and Shino-test Corporation, Japan, respectively. The sensitivities of the assays were <3 pg/ml for TNFα, <7 pg/ml for IL-1β, <3 pg/ml for IL-6 and 1 ng/ml for HMGB-1."}, "HMGB-1": {"test_system": "HMGB-1", "assay": "Plasma HMGB-1 by ELISA after LPS injection", "format": "in vivo, mice", "settings": "LPS 1 mg/kg i.p.; IL-1Ra 100 mg/kg s.c. immediately before LPS", "experimental": "as §1, §2"}, "microglia [2]": {"test_system": "microglia", "assay": "Hippocampal microglia anti-CD11b immunohistochemistry grading after LPS injection", "format": "in vivo, mice", "settings": "LPS 1 mg/kg i.p.; IL-1Ra pre-treatment; days 1 and 3", "experimental": "as §1\nImmunohistochemistry (IHC). Mice were euthanized and perfused transcardially with ice-cold heparinized 0.1M phosphate buffer solution (PBS) followed by 4% paraformaldehyde in 0.1M PBS at pH 7.4 (VWR International, UK). The brains were harvested and post-fixed in 4% paraformaldehyde in 0.1M PBS at 4° C. and cryoprotected in 0.1M PBS solutions containing 15% sucrose for 24 hours (VWR International, UK) and then 30% sucrose for a further 48 hours. Brain tissue was freeze-mounted in OCT embedding medium (VWR International, UK). The 25 μm thick coronal sections of the hippocampus were cut sequentially in groups of 6 and mounted on Superfrost® plus slides (Menzel-Glaser, Germany). […]"}, "C57BL/6 male mice": {"test_system": "C57BL/6 male mice", "assay": "Trace fear conditioning, contextual fear response after LPS injection", "format": "in vivo", "settings": "LPS within 30 min after training, tested day 3, IL-1Ra pre-treatment", "experimental": "as §1\nBehavioral measurement (conditioning). The behavioral study was conducted using a dedicated conditioning chamber (Med Associates Inc., USA). Mice were trained and tested on separate days. LPS was injected within 30 minutes following training. […] Three days after training, mice were returned to the same chamber in which training occurred (context), and freezing behavior was recorded. […] Approximately 3 h later, freezing was recorded in a novel environment and in response to the cue (tone). The auditory cue was then presented for 3 min, and freezing scored again. Freezing scores for each subject were expressed as a percentage for each portion of the test. […]"}}, "note": "“Also recorded” adds a separate entry of the source.", "data": [{"substance": "IL-1Ra: IL-1 receptor antagonist (Amgen, Anakinra)", "values": [{"measurement": "Reactive microgliosis in hippocampus (CD11b grading) after surgery, effect of treatment", "setting": "microglia [1]", "result": "surgery did not increase hippocampal microgliosis; also recorded: surgery did not activate microglia if IL-1Ra was given pre-operatively"}, {"measurement": "Plasma IL-6 at 6 hours after LPS with IL-1Ra", "setting": "IL-6; 6 hours", "result": "91.02 ± 15.17", "unit": "pg/mL"}, {"measurement": "Plasma IL-6 at 24 hours after LPS with IL-1Ra", "setting": "IL-6; 24 hours", "result": "14.05 ± 2.34", "unit": "pg/mL"}, {"measurement": "Plasma HMGB-1 after LPS, effect of IL-1Ra", "setting": "HMGB-1", "result": "had no effects on HMGB-1 release in plasma; also recorded: had no effects on HMGB-1 levels"}, {"measurement": "Reactive microglia in hippocampus after LPS, effect of IL-1Ra", "setting": "microglia [2]", "result": "Reduction in the number of reactive microglia was observed; also recorded: attenuated by IL-1Ra treatment; also recorded: effectively reduced the number of reactive microglia at days 1 and 3"}, {"measurement": "Contextual fear response (freezing) after LPS, effect of IL-1Ra", "setting": "C57BL/6 male mice", "result": "significantly ameliorated the memory retention at day 3; also recorded: significantly ameliorated this cognitive dysfunction"}]}]}
